Results: PubChem BioAssay AID248 (DTP/NCI, 2004)
Inconclusive results and toxic doses are left out. No stated cut-off is given here; in the data, active means T/C of 150% or more; inactive means T/C below 125%.

System: L1210 leukemia ip in BDF1 mice, survival T/C
Experiment: NCI In Vivo Anticancer Drug Screen. Data for tumor model L1210 Leukemia (intraperitoneal) in B6D2F1 (BDF1) mice
Conditions: endpoint: mean survival time, higher = longer survival
Summary of the method: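 Tumor cells were implanted, animals were treated, and survival was followed. The result divides the treated measurement by the vehicle-control measurement.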

[1] = dose: 100.0 mg/kg/injection, schedule: Q01DX009 (ip), vehicle: Klucel (hydroxypropylcellulose) (HPC)
[2] = dose: 100.0 mg/kg/injection, schedule: Q04DX003 (ip), vehicle: Klucel (hydroxypropylcellulose) (HPC)
[3] = dose: 100.0 mg/kg/injection, schedule: Q04DX003 (ip), vehicle: saline
[4] = dose: 200.0 mg/kg/injection, schedule: Q01DX009 (ip), vehicle: Klucel (hydroxypropylcellulose) (HPC)
[5] = dose: 200.0 mg/kg/injection, schedule: Q04DX003 (ip), vehicle: Klucel (hydroxypropylcellulose) (HPC)
[6] = dose: 200.0 mg/kg/injection, schedule: Q04DX003 (ip), vehicle: saline
[7] = dose: 400.0 mg/kg/injection, schedule: Q01DX009 (ip), vehicle: Klucel (hydroxypropylcellulose) (HPC)
[8] = dose: 400.0 mg/kg/injection, schedule: Q04DX003 (ip), vehicle: Klucel (hydroxypropylcellulose) (HPC)
[9] = dose: 400.0 mg/kg/injection, schedule: Q04DX003 (ip), vehicle: saline
[10] = dose: 200.0 mg/kg/injection, schedule: Q04DX003 (ip), vehicle: acetone
[11] = dose: 400.0 mg/kg/injection, schedule: Q04DX003 (ip), vehicle: acetone
[12] = dose: 100.0 mg/kg/injection, schedule: Q01DX009 (ip), vehicle: saline
[13] = dose: 200.0 mg/kg/injection, schedule: Q01DX009 (ip), vehicle: saline
[14] = dose: 400.0 mg/kg/injection, schedule: Q01DX009 (ip), vehicle: saline
[15] = dose: 100.0 mg/kg/injection, schedule: Q04DX003 (ip), vehicle: saline with Tween-80
[16] = dose: 200.0 mg/kg/injection, schedule: Q04DX003 (ip), vehicle: saline with Tween-80
[17] = dose: 400.0 mg/kg/injection, schedule: Q04DX003 (ip), vehicle: saline with Tween-80
[18] = dose: 50.0 mg/kg/injection, schedule: Q01DX009 (ip), vehicle: saline
[19] = dose: 50.0 mg/kg/injection, schedule: Q04DX003 (ip), vehicle: saline
[20] = dose: 100.0 mg/kg/injection, schedule: Q01DX001 (ip), vehicle: saline
[21] = dose: 200.0 mg/kg/injection, schedule: Q01DX001 (ip), vehicle: saline
[22] = dose: 400.0 mg/kg/injection, schedule: Q01DX001 (ip), vehicle: saline
[23] = dose: 25.0 mg/kg/injection, schedule: Q01DX009 (ip), vehicle: Klucel (hydroxypropylcellulose) (HPC)
[24] = dose: 50.0 mg/kg/injection, schedule: Q01DX009 (ip), vehicle: Klucel (hydroxypropylcellulose) (HPC)

Measured: T/C

COC1(OC)C2(Cl)C(Cl)=C(Cl)C1(Cl)C1C(=O)C=CC(=O)C12 (stereo unspecified)
inactive: [1] 104 % of control | [2] 100 % of control | [3] 98 % of control | [4] 96 % of control | [5] 98 % of control | [6] 93 % of control | [7] 98 % of control | [8] 96 % of control | [9] 101 % of control

O=C1C=CC(=NCC(=O)OCc2ccccc2)O1
inactive: [10] 91 % of control | [11] 90 % of control

CC1(C)C2CCC1(CS(=O)(=O)O)C(=O)C2Br.[Ag] (stereo unspecified)
inactive: dose: 1.56 mg/kg/injection, schedule: Q01DX009 (ip), vehicle: saline 101 % of control | dose: 3.12 mg/kg/injection, schedule: Q01DX009 (ip), vehicle: saline 108 % of control | dose: 6.25 mg/kg/injection, schedule: Q01DX009 (ip), vehicle: saline 90 % of control | dose: 12.5 mg/kg/injection, schedule: Q01DX009 (ip), vehicle: saline with Tween-80 93 % of control

OCC1(c2ccccc2)CCN(Cc2ccccc2)CC1
inactive: [1] 91 % of control | [2] 104 % of control | [4] 96 % of control | [5] 101 % of control | [7] 91 % of control | [8] 97 % of control

O=C(O)c1ccc2c(c1Nc1ccccc1)C(=O)c1ccccc1C2=O
inactive: [12] 106 % of control | [13] 94 % of control | [14] 94 % of control

CC(=O)Nc1cc2c(cc1[N+](=O)[O-])-c1ccccc1/C2=N\O
inactive: dose: 100.0 mg/kg/injection, schedule: Q01DX001 (ip), vehicle: carboxymethylcellulose (CMC) 106 % of control | dose: 200.0 mg/kg/injection, schedule: Q01DX001 (ip), vehicle: carboxymethylcellulose (CMC) 94 % of control | dose: 400.0 mg/kg/injection, schedule: Q01DX001 (ip), vehicle: carboxymethylcellulose (CMC) 111 % of control

Cc1csc(N)c1C(N)=O
inactive: dose: 50.0 mg/kg/injection, schedule: Q01DX009 (ip), vehicle: saline with Tween-80 97 % of control | dose: 50.0 mg/kg/injection, schedule: Q04DX003 (ip), vehicle: saline with Tween-80 97 % of control | dose: 100.0 mg/kg/injection, schedule: Q01DX009 (ip), vehicle: saline with Tween-80 103 % of control | [12] 112 % of control | [15] 92 % of control | [3] 117 % of control | dose: 200.0 mg/kg/injection, schedule: Q01DX009 (ip), vehicle: saline with Tween-80 102 % of control | [13] 100 % of control | [16] 97 % of control | [6] 116 % of control | dose: 400.0 mg/kg/injection, schedule: Q01DX009 (ip), vehicle: saline with Tween-80 103 % of control | [14] 109 % of control | [17] 102 % of control | [9] 115 % of control

CCC(C)n1ncc2c(N(C)C)ncnc21 (stereo unspecified)
inactive: [18] 103 % of control | [19] 105 % of control | [20] 98 % of control | [12] 115 % of control | [3] 105 % of control | [21] 102 % of control | [6] 107 % of control

COCC(O)C(OC)C(OC)C(C=O)NC(=O)NCCCl (stereo unspecified)
inactive: dose: 100.0 mg/kg/injection, schedule: Q01DX001 (ip), vehicle: Klucel (hydroxypropylcellulose) (HPC) 102 % of control | dose: 200.0 mg/kg/injection, schedule: Q01DX001 (ip), vehicle: Klucel (hydroxypropylcellulose) (HPC) 103 % of control | dose: 400.0 mg/kg/injection, schedule: Q01DX001 (ip), vehicle: Klucel (hydroxypropylcellulose) (HPC) 100 % of control

COc1cc2c(cc1OC)-c1nc(C)sc1CC2
inactive: [15] 98 % of control | [16] 95 % of control | [17] 98 % of control

Cc1cc(C)c(NC(C)C)c(C)c1N
inactive: dose: 50.0 mg/kg/injection, schedule: Q04DX002 (ip), vehicle: Klucel (hydroxypropylcellulose) (HPC) 92 % of control | [20] 104 % of control | dose: 100.0 mg/kg/injection, schedule: Q04DX002 (ip), vehicle: Klucel (hydroxypropylcellulose) (HPC) 92 % of control | [21] 92 % of control | dose: 200.0 mg/kg/injection, schedule: Q04DX002 (ip), vehicle: Klucel (hydroxypropylcellulose) (HPC) 95 % of control | [22] 93 % of control

COC1C=CC(OC)(C(OC)OC)O1 (stereo unspecified)
inactive: [20] 104 % of control | [21] 101 % of control | [22] 98 % of control

O=c1[nH]cnc2c1cnn2-c1ccccc1
inactive: [1] 104 % of control | [4] 104 % of control | [7] 112 % of control

O=C(CCCC(O)(C1CC1)C1CC1)C1CC1
inactive: dose: 100.0 mg/kg/injection, schedule: Q01DX009 (ip), vehicle: acetone 106 % of control | dose: 100.0 mg/kg/injection, schedule: Q04DX003 (ip), vehicle: acetone 112 % of control | dose: 200.0 mg/kg/injection, schedule: Q01DX009 (ip), vehicle: acetone 106 % of control | [10] 101 % of control | dose: 400.0 mg/kg/injection, schedule: Q01DX009 (ip), vehicle: acetone 109 % of control | [11] 101 % of control

O=C(N/N=C/c1ccc([N+](=O)[O-])s1)c1ccccc1O
inactive: [3] 94 % of control | [6] 100 % of control | [9] 97 % of control

CC(=O)Oc1cc(-c2ccc3c(c2)C2(C)c4cc(OC(C)=O)c5ccccc5c4OC2(C)N3C)c(OC(C)=O)c2ccccc12 (stereo unspecified)
inactive: dose: 100.0 mg/kg/injection, schedule: Q01DX001 (ip), vehicle: other 92 % of control | dose: 200.0 mg/kg/injection, schedule: Q01DX001 (ip), vehicle: other 88 % of control | dose: 400.0 mg/kg/injection, schedule: Q01DX001 (ip), vehicle: other 92 % of control

CN(C=O)c1ccccc1
inactive: dose: 100.0 mg/kg/injection, schedule: Q04DX002 (ip), vehicle: saline 106 % of control | dose: 200.0 mg/kg/injection, schedule: Q04DX002 (ip), vehicle: saline 102 % of control | dose: 400.0 mg/kg/injection, schedule: Q04DX002 (ip), vehicle: saline 95 % of control

CCCCN(C(=O)CCl)C(C)(C)C(SSC(c1ccc(Cl)cc1)C(C)(C)N(CCCC)C(=O)CCl)c1ccc(Cl)cc1 (stereo unspecified)
inactive: dose: 12.5 mg/kg/injection, schedule: Q01DX009 (ip), vehicle: Klucel (hydroxypropylcellulose) (HPC) 96 % of control | [23] 101 % of control | [24] 96 % of control

C/C=C1/C(=O)Oc2ccccc21
inactive: [18] 97 % of control | [12] 102 % of control | [13] 94 % of control

CCCCCCCCCOCCOCCOCCN
inactive: dose: 12.0 mg/kg/injection, schedule: Q01DX009 (ip), vehicle: Klucel (hydroxypropylcellulose) (HPC) 99 % of control | [23] 100 % of control | dose: 25.0 mg/kg/injection, schedule: Q04DX003 (ip), vehicle: saline 102 % of control | [24] 100 % of control | [19] 96 % of control | [3] 86 % of control

CC(=O)OCC(I)CC(F)(F)C(F)(F)C(F)(F)F (stereo unspecified)
inactive: dose: 100.0 mg/kg/injection, schedule: Q01DX001 (ip), vehicle: saline with Tween-80 98 % of control | dose: 200.0 mg/kg/injection, schedule: Q01DX001 (ip), vehicle: saline with Tween-80 103 % of control | dose: 400.0 mg/kg/injection, schedule: Q01DX001 (ip), vehicle: saline with Tween-80 116 % of control
